Patent US20260176265A1 (Cancer Research Technology Limited, priority 2022, published 2026)
pIC50: −log10 of the molar value.

How the values were obtained:
[1] = target: T1, Phospho-EGFR (Tyr1068) in H1975 cells (Homo sapiens, UniProt P00533, L858R/T790M); assay: HTRF pEGFR/total EGFR assay in H1975 cells; format: cell-based; details: compound 3 hours, ratio pEGFR/total EGFR
T1 construct: host or cells: H1975
In short: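 H1975 cells (EGFR L858R/T790M) adhered 24 h, then compound-treated for 3 h in duplicate, 0.1% DMSO final. Lysates read by HTRF at 665/620 nm for phospho-Tyr1068 and total EGFR. Value is pEGFR/total EGFR ratio as % of 0 uM control.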

[2] = target: T2, Phospho-EGFR (Tyr1068) in H1975 C797S cells (Homo sapiens, UniProt P00533, C797S/L858R/T790M); assay: HTRF pEGFR/total EGFR assay in H1975 C797S cells; format: cell-based; details: H1975 C797S cells (CRISPR), compound 3 hours, ratio pEGFR/total EGFR
T2 construct: endogenous in cells; host or cells: H1975 C797S (CRISPR-edited in house from ATCC CRL-5908)
In short: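 Phospho-EGFR (Tyr1068) and total EGFR were measured by HTRF (665 and 620 nm) in lysates of NGS-validated H1975 EGFR C797S cells. Cells were dosed for 3 h in duplicate, 0.1% DMSO final. Read-out is the pEGFR/total EGFR ratio relative to the 0 uM control, as percent.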

[3] = target: T3, Phospho-EGFR (Tyr1068) in A431 cells (Homo sapiens, UniProt P00533); assay: HTRF pEGFR/total EGFR assay in A431 cells (EGF stimulated); format: cell-based; details: compound 2.5 hours then 100 ng/ml EGF 30 mins, ratio pEGFR/total EGFR
T3 construct: endogenous in cells; host or cells: A431
In short: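 HTRF readout (665 and 620 nm) of Tyr1068-phosphorylated versus total EGFR in lysed A431 cells, expressed as ratio relative to 0uM control (%). Compound exposure 2.5 h in duplicate at 0.1% DMSO, with 100 ng/ml EGF added for 30 min.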

[4] = target: CtermHisTag-mEGFR Wild type (Homo sapiens, UniProt P00533); assay: TR-FRET probe displacement assay, EGFR wild type; format: binding; details: EGFR wild type 1.25 nM, probe 100 nM, 30 mins room temperature
In short: (§1)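 Probe displacement from His-tagged wild-type or triple-mutant EGFR measured by TR-FRET (excitation 337 nm, emission 490/520 nm). Compounds spanned final concentrations from 3 to 100000 nM over ten points; technical replicates, repeated twice biologically.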

[5] = target: CtermHisTag-mEGFR Triple Mutant - C797S, L858R, T790M (Homo sapiens, UniProt P00533, C797S/L858R/T790M); assay: TR-FRET probe displacement assay, EGFR triple mutant; format: binding; details: T790M 1.25 nM, probe 100 nM, 30 mins room temperature
In short: as §1

T1 sequence (P00533 25-1210 T790M/L858R): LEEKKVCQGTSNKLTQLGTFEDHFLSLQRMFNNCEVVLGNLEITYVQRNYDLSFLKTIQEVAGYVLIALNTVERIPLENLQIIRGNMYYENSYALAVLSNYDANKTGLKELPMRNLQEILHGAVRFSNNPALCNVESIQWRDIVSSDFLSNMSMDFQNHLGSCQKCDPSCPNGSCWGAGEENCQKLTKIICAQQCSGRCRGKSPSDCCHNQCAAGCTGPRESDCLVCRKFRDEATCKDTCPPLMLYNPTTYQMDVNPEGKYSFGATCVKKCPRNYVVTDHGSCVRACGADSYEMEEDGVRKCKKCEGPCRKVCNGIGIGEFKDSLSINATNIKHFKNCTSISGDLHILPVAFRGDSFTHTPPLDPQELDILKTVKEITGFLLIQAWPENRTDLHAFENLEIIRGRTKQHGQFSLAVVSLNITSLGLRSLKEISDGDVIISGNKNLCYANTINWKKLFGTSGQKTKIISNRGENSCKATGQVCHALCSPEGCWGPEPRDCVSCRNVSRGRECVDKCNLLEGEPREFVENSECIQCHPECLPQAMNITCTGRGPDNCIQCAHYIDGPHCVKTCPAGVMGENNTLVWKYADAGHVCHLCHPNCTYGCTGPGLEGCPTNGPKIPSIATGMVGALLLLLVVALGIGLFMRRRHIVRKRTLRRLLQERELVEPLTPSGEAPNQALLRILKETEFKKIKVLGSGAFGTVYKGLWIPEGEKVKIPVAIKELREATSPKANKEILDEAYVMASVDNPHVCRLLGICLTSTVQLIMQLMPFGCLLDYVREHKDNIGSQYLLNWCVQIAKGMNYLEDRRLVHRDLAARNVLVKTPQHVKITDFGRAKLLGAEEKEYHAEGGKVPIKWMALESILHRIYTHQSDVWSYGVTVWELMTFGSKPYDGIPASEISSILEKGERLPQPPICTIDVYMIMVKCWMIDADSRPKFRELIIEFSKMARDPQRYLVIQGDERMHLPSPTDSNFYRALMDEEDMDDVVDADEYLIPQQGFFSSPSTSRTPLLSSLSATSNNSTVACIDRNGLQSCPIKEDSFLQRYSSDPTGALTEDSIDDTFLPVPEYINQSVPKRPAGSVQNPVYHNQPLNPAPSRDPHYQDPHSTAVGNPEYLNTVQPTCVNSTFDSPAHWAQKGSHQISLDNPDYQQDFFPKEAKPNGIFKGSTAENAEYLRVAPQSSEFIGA
T3 sequence (P00533 25-1210): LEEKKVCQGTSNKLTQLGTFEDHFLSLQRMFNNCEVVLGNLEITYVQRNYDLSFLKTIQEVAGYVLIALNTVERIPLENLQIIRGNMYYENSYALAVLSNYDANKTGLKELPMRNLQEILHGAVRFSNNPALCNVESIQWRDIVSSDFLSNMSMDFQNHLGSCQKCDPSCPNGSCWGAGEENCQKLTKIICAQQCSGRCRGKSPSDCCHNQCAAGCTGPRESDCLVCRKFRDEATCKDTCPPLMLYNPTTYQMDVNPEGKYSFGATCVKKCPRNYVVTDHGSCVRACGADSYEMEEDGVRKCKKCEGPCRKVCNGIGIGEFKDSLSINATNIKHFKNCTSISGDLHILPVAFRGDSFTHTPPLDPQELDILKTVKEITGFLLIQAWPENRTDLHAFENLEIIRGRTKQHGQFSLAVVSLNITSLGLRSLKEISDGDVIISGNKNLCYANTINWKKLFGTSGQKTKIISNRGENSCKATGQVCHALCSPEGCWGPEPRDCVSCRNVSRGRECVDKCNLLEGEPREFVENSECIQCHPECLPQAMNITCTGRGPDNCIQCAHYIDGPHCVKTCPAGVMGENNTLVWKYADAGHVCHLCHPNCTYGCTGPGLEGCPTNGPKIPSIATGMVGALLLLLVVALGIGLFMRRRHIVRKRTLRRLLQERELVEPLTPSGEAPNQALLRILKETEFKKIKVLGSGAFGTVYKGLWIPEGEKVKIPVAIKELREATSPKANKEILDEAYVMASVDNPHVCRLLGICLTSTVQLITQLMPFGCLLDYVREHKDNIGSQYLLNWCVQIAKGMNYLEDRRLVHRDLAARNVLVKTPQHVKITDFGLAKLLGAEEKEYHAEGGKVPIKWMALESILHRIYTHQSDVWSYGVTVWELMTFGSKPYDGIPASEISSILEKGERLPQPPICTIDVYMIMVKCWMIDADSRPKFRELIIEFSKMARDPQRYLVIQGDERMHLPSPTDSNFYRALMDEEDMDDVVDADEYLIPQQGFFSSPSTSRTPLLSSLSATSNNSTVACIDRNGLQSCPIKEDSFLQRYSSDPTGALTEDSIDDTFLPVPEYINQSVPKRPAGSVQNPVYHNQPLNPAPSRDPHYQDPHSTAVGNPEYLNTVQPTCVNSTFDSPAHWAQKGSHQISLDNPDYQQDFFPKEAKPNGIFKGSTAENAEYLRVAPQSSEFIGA
Chain of CtermHisTag-mEGFR Wild type (P00533 25-1210): as above
T2 sequence (P00533 25-1210 T790M/C797S/L858R): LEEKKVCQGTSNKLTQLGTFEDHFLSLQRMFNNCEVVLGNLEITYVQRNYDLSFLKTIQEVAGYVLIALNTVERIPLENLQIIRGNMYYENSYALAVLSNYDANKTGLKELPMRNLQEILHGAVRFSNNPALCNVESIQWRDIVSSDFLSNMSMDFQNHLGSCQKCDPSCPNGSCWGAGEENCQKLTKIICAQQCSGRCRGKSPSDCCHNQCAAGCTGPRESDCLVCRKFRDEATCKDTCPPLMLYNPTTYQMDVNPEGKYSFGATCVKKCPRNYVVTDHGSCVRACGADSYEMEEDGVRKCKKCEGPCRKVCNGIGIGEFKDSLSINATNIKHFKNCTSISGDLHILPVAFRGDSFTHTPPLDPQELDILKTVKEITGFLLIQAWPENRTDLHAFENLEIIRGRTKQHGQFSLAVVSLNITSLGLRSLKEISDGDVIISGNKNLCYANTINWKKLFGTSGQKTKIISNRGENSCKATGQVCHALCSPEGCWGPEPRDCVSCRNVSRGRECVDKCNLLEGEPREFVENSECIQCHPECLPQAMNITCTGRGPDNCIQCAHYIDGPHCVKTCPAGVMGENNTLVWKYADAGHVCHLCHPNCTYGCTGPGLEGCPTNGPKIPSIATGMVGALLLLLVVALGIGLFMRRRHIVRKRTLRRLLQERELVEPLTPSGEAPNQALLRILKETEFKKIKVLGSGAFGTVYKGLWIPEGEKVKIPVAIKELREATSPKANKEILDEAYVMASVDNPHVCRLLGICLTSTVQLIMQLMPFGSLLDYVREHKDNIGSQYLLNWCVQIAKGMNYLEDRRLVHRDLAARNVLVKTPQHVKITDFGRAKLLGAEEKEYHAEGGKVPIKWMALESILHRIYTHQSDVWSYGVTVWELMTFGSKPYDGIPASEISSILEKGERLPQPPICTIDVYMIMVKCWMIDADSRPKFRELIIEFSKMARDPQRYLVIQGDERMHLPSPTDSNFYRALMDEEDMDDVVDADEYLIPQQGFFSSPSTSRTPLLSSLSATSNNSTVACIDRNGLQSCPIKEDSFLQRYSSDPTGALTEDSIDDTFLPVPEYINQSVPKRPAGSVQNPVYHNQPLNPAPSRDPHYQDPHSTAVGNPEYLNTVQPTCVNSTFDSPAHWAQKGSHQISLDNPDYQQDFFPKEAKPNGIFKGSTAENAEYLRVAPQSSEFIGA

Row | pIC50 [1] | pIC50 [2] | pIC50 [3] | pIC50 [4] | pIC50 [5] | SMILES
1 | < 5.52 | < 5.52 | 5.52 to 6.00 | < 5.00 | 6.00 to 7.00 | C#Cc1cc(N2C(=O)N(C)CC23CCCC3)nc2nc(Nc3ccc(S(=O)(=O)N(C)C)cc3)ncc12 [Example 109, 4-[(5-Ethynyl-7-{3-methyl-2-oxo-1,3-diazaspiro[4.4]nonan-1-yl}pyrido[2,3-d]pyrimidin-2-yl)amino]-N,N-dimethylbenzenesulfonamide]
2 | < 5.52 | < 5.52 | < 5.52 | < 5.00 | 6.00 to 7.00 | C#Cc1cc(N2C(=O)N(C)CC23CCCC3)nc2nc(Nc3ccc(S(=O)(=O)N(C)CCN(C)C)cc3)ncc12 [Example 110, N-[2-(Dimethylamino)ethyl]-4-[(5-ethynyl-7-{3-methyl-2-oxo-1,3-diazaspiro[4.4]nonan 1-yl}pyrido[2,3-d]pyrimidin-2-yl)amino]-N-methylbenzenesulfonamide]
3 | 6.00 to 6.30 | 6.00 to 6.30 | < 5.52 | 5.00 to 6.00 | > 7.70 | C#Cc1cc(N2C(=O)OCC2C2CCCC2)nc2nc(Nc3ccc(N4CCN(C)CC4)cc3)ncc12 (centres unmarked) [Example 111, 4-Cyclopentyl-3-(5-ethynyl-2-{[4-(4-methylpiperazin-1-yl)phenyl]amino}pyrido[2,3-d]pyrimidin-7-yl)-1,3-oxazolidin-2-one]
4 | 6.00 to 6.30 | 6.00 to 6.30 | < 5.52 | > 6.00 | > 7.70 | C#Cc1cc(N2C(=O)OCC2CC2CCCC2)nc2nc(Nc3ccc(N4CCN(C)CC4)cc3)ncc12 (centres unmarked) [Example 112, 4-(Cyclopentylmethyl)-3-(5-ethynyl-2-{[4-(4-methylpiperazin-1-yl)phenyl]amino}pyrido[2,3-d]pyrimidin-7-yl)-1,3-oxazolidin-2-one]
5 | 6.00 to 6.30 | 5.52 to 6.00 | < 5.52 | < 5.00 | 7.00 to 7.70 | C#Cc1cc(N2CC(C(C)C)OC2=O)nc2nc(Nc3ccc(N4CCN(C)CC4)cc3)ncc12 (centres unmarked) [Example 113, 3-(5-Ethynyl-2-{[4-(4-methylpiperazin-1-yl)phenyl]amino}pyrido[2,3-d]pyrimidin-7-yl)-5-isopropyl-1.3-oxazolidin-2-one]
6 | > 6.30 | 6.00 to 6.30 | 5.52 to 6.00 | > 6.00 | > 7.70 | C#Cc1cc(N2C(=O)OCC23CCCC3)nc2nc(Nc3ccc(N4CCN(C)CC4)cc3)ncc12 [Example 114, 1-(5-Ethynyl-2-{[4-(4-methylpiperazin-1-yl)phenyl]amino}pyrido[2,3-d]pyrimidin-7-yl)-3-oxa-1-azaspiro[4.4]nonan-2-one]
7 | 6.00 to 6.30 | < 5.52 | < 5.52 | 5.00 to 6.00 | > 7.70 | C#Cc1cc(N2C(=O)OCC2C2CCCC2)nc2nc(Nc3ccc(N4CCNCC4)cc3)ncc12 (centres unmarked) [Example 115, 4-Cyclopentyl-3-(5-ethynyl-2-{[4-(piperazin-1-yl)phenyl]amino}pyrido[2,3-d]pyrimidin-7-y0)-1,3-oxazolidin-2-one]
8 | > 6.30 | 6.00 to 6.30 | < 5.52 | 5.00 to 6.00 | > 7.70 | C#Cc1cc(N2C(=O)OCC2COC)nc2nc(Nc3ccc(N4CCN(C)CC4)cc3)ncc12 (centres unmarked) [Example 116, 3-(5-Ethynyl-2-{[4-(4-methylpiperazin-1-yl)phenyl]amino}pyrido[2,3-d]pyrimidin-7-yl)-4-(methoxymethyl)-1,3-oxazolidin-2-one]
9 | < 5.52 | < 5.52 | < 5.52 | 5.00 to 6.00 | 6.00 to 7.00 | C#Cc1cc(NC(=O)NC2CCCC2)nc2nc(Nc3cccc4c3CN(C)C4)ncc12 [Example 117, 3-Cyclopentyl-1-{5-ethynyl-2-[(2-methyl-1,3-dihydroisoindol-4-yl)amino]pyrido[2,3-d]pyrimidin-7-yl}urea]
10 | < 5.52 | < 5.52 | < 5.52 | < 5.00 | 4.30 to 6.00 | C#Cc1cc(NC(=O)NC2CCCC2)nc2nc(Nc3ccccc3N3CCCC(CS(C)(=O)=O)C3)ncc12 (centres unmarked) [Example 118, 3-Cyclopentyl-1-[5-ethynyl-2-({2-[3-(methanesulfonylmethyl)piperidin-1-yl]phenyl}amino)pyrido[2,3-d]pyrimidin-7-yl]urea]
11 | > 6.30 | > 6.30 | 5.52 to 6.00 | > 6.00 | > 7.70 | C#Cc1cc(NC(=O)NC2CCCC2)nc2nc(Nc3cccc(N(C)[C@H]4C[C@H](CS(C)(=O)=O)C4)c3)ncc12 [Example 122]
12 | < 5.52 | < 5.52 | < 5.52 | < 5.00 | 4.30 to 6.00 | C#Cc1cc(N(C)C(=O)N(C)C2CCCC2)nc2nc(Nc3ccc(N4CCN(C)CC4)cc3)ncc12 [Example 123, 3-Cyclopentyl-1-(5-ethynyl-2-{[4-(4-methylpiperazin-1-yl)phenyl]amino}pyrido[2,3-d]pyrimidin-7-yl)-1,3-dimethylurea]
13 | 6.00 to 6.30 | > 6.30 | < 5.52 | > 6.00 | 7.00 to 7.70 | C#Cc1cc(N2C(=O)NCC2C2CCCC2)nc2nc(Nc3ccc(N4CCN(C)CC4)cc3)ncc12 (centres unmarked) [Example 124, 5-Cyclopentyl-1-(5-ethynyl-2-{[4-(4-methylpiperazin-1-yl)phenyl]amino}pyrido[2,3-d]pyrimidin-7-yl)imidazolidin-2-one]
